Source: US20240150321A1, “PYRAZOLYLSULFONAMIDE COMPOUNDS AND THEIR USE IN THERAPY” (HOTSPOT THERAPEUTICS, INC., priority 2022, published 2024)

Legend:
[1] = tested on: NF-kB reporter in Jurkat cells; assay: NF-kB reporter assay in Jurkat cells stimulated with aCD3/aCD28/PMA; type: cell-based; settings: Homo sapiens; Jurkat cells, 1 hr compound pre-incubation, aCD3/aCD28/PMA stimulation 4 hr, One-Glo readout; read-out: NF-kB Reporter Assay IC50
Summary of the method: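 Luminescence (One-Glo) from the NF-kB reporter yielded IC50 values. Stimulation lasted 4 h at 37° C with aCD3, aCD28 and PMA (final 5, 5 and 0.03 […]), after 1 h compound pre-exposure of 25,000 Jurkat cells per well in serum-free RPMI.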

Avi-tagged FL MALT-1 = Avi-tagged FL MALT-1 (Homo sapiens (Human), UniProt Q9UDY8); assay: MALT-1 Fluorogenic Peptide Cleavage Assay (MALT1 inhibition assay); type: biochemical; settings: Ac-LRSR-AMC peptide substrate, 30 min pre-incubation, 90 min reaction at room temperature
Summary of the method: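 Cleavage of Ac-LRSR-AMC, read as fluorescence at 342/441 nm after 90 min at room temperature, with substrate working stocks of 50 μM (Km) or 280 μM (10×Km). Enzyme, Avi-tagged full-length MALT-1 (40 nM stock), was first pre-incubated 30 min with compound in citrate/HEPES pH 6.89 buffer with TCEP, EDTA, CHAPS and 2% DMSO; IC50 fitted from normalised % inhibition.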

Avi-tagged FL MALT-1, sequence (Q9UDY8 whole entry): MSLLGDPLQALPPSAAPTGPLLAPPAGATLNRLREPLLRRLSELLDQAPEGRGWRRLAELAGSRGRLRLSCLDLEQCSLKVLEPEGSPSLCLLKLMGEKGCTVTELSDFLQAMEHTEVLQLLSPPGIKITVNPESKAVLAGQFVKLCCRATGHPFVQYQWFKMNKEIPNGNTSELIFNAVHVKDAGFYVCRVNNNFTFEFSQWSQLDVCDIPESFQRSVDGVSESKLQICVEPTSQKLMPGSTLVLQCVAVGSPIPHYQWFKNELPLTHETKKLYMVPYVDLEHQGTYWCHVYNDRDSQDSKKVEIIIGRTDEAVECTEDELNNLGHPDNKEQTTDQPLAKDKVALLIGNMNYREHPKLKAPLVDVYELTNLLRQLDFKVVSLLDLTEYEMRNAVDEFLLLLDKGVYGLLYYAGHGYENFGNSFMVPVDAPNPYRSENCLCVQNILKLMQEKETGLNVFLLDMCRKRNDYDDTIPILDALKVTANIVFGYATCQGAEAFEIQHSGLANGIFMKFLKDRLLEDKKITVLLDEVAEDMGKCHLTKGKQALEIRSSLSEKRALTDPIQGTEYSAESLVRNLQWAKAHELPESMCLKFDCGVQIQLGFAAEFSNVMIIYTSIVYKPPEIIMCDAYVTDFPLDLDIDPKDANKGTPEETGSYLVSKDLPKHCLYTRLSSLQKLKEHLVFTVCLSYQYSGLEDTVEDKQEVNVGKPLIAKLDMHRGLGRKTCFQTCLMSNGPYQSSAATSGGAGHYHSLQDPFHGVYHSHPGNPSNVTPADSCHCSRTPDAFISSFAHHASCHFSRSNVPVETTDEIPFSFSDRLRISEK

| SMILES | IC50 [1] | IC50 (Avi-tagged FL MALT-1) |
| --- | --- | --- |
| COc1ccc2cnn(C)c2c1NS(=O)(=O)c1cnn(-c2cc(N3CC[C@@H](C)C3)ccn2)c1 [Compound I-403] | < 0.4 µM | > 2.5 µM |
| COc1ccc2cnn(C)c2c1NS(=O)(=O)c1cnn(-c2cc(N3CC4CC(C4)C3)ccn2)c1 [Compound I-404] | < 0.4 µM | > 2.5 µM |
| COc1ncc2cnn(C)c2c1NS(=O)(=O)c1cnn(-c2cc(N3CC4CC4C3)ccn2)c1 (centres unmarked) [Compound I-405] | < 0.4 µM | > 2.5 µM |
| COc1ncc2cnn(C)c2c1NS(=O)(=O)c1cnn(-c2cc(N3CC4CC(C4)C3)ccn2)c1 [Compound I-406] | < 0.4 µM | > 2.5 µM |
| COc1ncc2cnn(C)c2c1NS(=O)(=O)c1cnn(-c2cc(N3CCC(C)CC3)ccn2)c1 [Compound I-407] | < 0.4 µM | > 2.5 µM |
| COc1ncc2cnn(C)c2c1NS(=O)(=O)c1cnn(-c2cc(N3CCCCCC3)ccn2)c1 [Compound I-408] | < 0.4 µM | > 2.5 µM |
| Cn1ncc2cccc(NS(=O)(=O)c3cnn(-c4cc(N5CC6CC5C6)ccn4)c3)c21 [Compound I-409, 1-(4-{2-azabicyclo[2.1.1]hexan-2-yl}pyridin-2-yl)-N-(1-methylindazol-7-yl)pyrazole-4-sulfonamide] | < 0.4 µM | > 2.5 µM |
| Cn1ncc2cccc(NS(=O)(=O)c3cnn(-c4cc(N5CCC6(CC6)C5)ccn4)c3)c21 [Compound I-410, 1-(4-{5-azaspiro[2.4]heptan-5-yl}pyridin-2-yl)-N-(1-methylindazol-7-yl)pyrazole-4-sulfonamide] | < 0.4 µM | > 2.5 µM |
| [2H]C([2H])([2H])n1ncc2cnc(OC)c(NS(=O)(=O)c3cnn(-c4cc(C(C)(F)F)ccn4)c3)c21 [Compound I-411, 1-(4-(1,1-Difluoroethyl)Pyridin-2-yl)-N-(6-Methoxy-1-(Methyl-D3)-1H-Pyrazolo[4,3-C]Pyridin-7-yl)-1H-Pyrazole-4-Sulfonamide] | < 0.4 µM | ≤ 0.4 µM |
| [2H]C([2H])([2H])n1ncc2ccc(OC)c(NS(=O)(=O)c3cnn(-c4cc(C(C)(F)F)ccn4)c3)c21 [Compound I-412, 1-(4-(1,1-Difluoroethyl)Pyridin-2-yl)-N-(6-Methoxy-1-(Methyl-D3)-1H-Indazol-7-yl)-1H-Pyrazole-4-Sulfonamide] | < 0.4 µM | ≤ 0.4 µM |
| COc1ccc2cnn(C)c2c1NS(=O)(=O)c1cnn(-c2cc(C3(F)CC(C)C3)ccn2)c1 (centres unmarked) [Compound I-413, 1-(4-(1-fluoro-3-methylcyclobutyl)pyridin-2-yl)-N-(6-methoxy-1-methyl-1H-indazol-7-yl)-1H-pyrazole-4-sulfonamide] | < 0.4 µM | 0.4 to 1 µM |
| CN1CC[C@@H](n2cc(S(=O)(=O)Nc3cccc4cnn(C)c34)cn2)CC1=O [Compound I-414] | > 2.5 µM | > 2.5 µM |
| CN1CC[C@H](n2cc(S(=O)(=O)Nc3cccc4cnn(C)c34)cn2)CC1=O [Compound I-415] | > 2.5 µM | > 2.5 µM |
| COc1ncc2cnn(C)c2c1NS(=O)(=O)c1cnn(-c2cc(N3CCOCC3)ccn2)c1 [Compound I-416] | 1 to 2.5 µM | > 2.5 µM |
| COc1ccc2cnn(C)c2c1NS(=O)(=O)c1cnn(-c2cc(N3CC4CC4C3)ccn2)c1 (centres unmarked) [Compound I-417] | < 0.4 µM | > 2.5 µM |
| COc1ccc2cnn(C)c2c1NS(=O)(=O)c1cnn(-c2cc(N3CCC(C)CC3)ccn2)c1 [Compound I-418] | < 0.4 µM | > 2.5 µM |
| COc1ncc2cnn(C)c2c1NS(=O)(=O)c1cnn(-c2cc(N3CC[C@H](C)C3)ccn2)c1 [Compound I-419] | < 0.4 µM | > 2.5 µM |
| COc1ncc2cnn(C)c2c1NS(=O)(=O)c1cnn(-c2cc(N3CC[C@@H](C)C3)ccn2)c1 [Compound I-420] | < 0.4 µM | > 2.5 µM |
| Cn1ncc2cccc(NS(=O)(=O)c3cnn(-c4cc(N5CCC(C)(C)C5)ccn4)c3)c21 [Compound I-421, 1-(4-(3,3-dimethylpyrrolidin-1-yl)pyridin-2-yl)-N-(1-methyl-1H-indazol-7-yl)-1H-pyrazole-4-sulfonamide] | < 0.4 µM | > 2.5 µM |
